From the NIST ThermoML archive (doi:10.1021/je400630f)
± gives the expanded uncertainty stated by the source.

Experiment: xn = mol fraction of the nth substance listed
Settings: 100 kPa, Liquid; for viscosity: Capillary tube (Ostwald / Ubbelohde) method

CCCCO [butan-1-ol] + CCO
Settings	mass density, 283.15 K [kg/m3]	mass density, 293.15 K [kg/m3]	mass density, 298.15 K [kg/m3]	mass density, 303.15 K [kg/m3]	mass density, 313.15 K [kg/m3]	viscosity, 283.15 K [mPa·s]	viscosity, 293.15 K [mPa·s]	viscosity, 298.15 K [mPa·s]	viscosity, 303.15 K [mPa·s]	viscosity, 313.15 K [mPa·s]
x2 = 0	817.3 ± 1.2	809.6 ± 1.3	805.8 ± 1.3	802.1 ± 1.3	794.3 ± 1.3	3.822 ± 0.079	2.859 ± 0.059	2.558 ± 0.053	2.236 ± 0.046	1.736 ± 0.036
x2 = 0.1002	815.9 ± 1.2	808.3 ± 1.3	804.5 ± 1.3	800.6 ± 1.3	792.8 ± 1.4	3.528 ± 0.073	2.645 ± 0.055	2.371 ± 0.049	2.091 ± 0.043	1.631 ± 0.034
x2 = 0.2008	814.5 ± 1.2	806.8 ± 1.3	803 ± 1.3	799.1 ± 1.3	791.2 ± 1.4	3.198 ± 0.066	2.44 ± 0.05	2.192 ± 0.045	1.938 ± 0.04	1.526 ± 0.032
x2 = 0.3018	813.3 ± 1.3	805.6 ± 1.3	801.7 ± 1.3	797.8 ± 1.3	789.8 ± 1.4	2.887 ± 0.06	2.235 ± 0.046	2.017 ± 0.042	1.788 ± 0.037	1.42 ± 0.029
x2 = 0.4006	811.7 ± 1.3	803.8 ± 1.3	799.9 ± 1.3	795.9 ± 1.3	787.9 ± 1.4	2.63 ± 0.054	2.048 ± 0.042	1.853 ± 0.038	1.636 ± 0.034	1.321 ± 0.027
x2 = 0.5002	809.6 ± 1.3	801.6 ± 1.3	797.7 ± 1.3	793.7 ± 1.3	785.6 ± 1.4	2.404 ± 0.05	1.879 ± 0.039	1.703 ± 0.035	1.506 ± 0.031	1.225 ± 0.025
x2 = 0.6008	807.7 ± 1.3	799.8 ± 1.3	795.8 ± 1.3	791.8 ± 1.4	783.6 ± 1.4	2.196 ± 0.045	1.715 ± 0.036	1.554 ± 0.032	1.379 ± 0.029	1.135 ± 0.024
x2 = 0.7002	805.6 ± 1.3	797.5 ± 1.3	793.4 ± 1.3	789.3 ± 1.4	781 ± 2	1.993 ± 0.041	1.567 ± 0.032	1.42 ± 0.029	1.274 ± 0.026	1.058 ± 0.022
x2 = 0.7991	803.3 ± 1.3	795.1 ± 1.3	790.9 ± 1.4	786.8 ± 1.4	778.3 ± 1.4	1.811 ± 0.038	1.421 ± 0.029	1.299 ± 0.027	1.175 ± 0.024	0.985 ± 0.021
x2 = 0.8997	800.8 ± 1.3	792.4 ± 1.4	788.2 ± 1.4	784.1 ± 1.4	776 ± 2	1.644 ± 0.034	1.299 ± 0.027	1.188 ± 0.025	1.074 ± 0.022	0.91 ± 0.019

CCCCCCCCCCO [decan-1-ol] + CCO
Settings	mass density, 283.15 K [kg/m3]	mass density, 293.15 K [kg/m3]	mass density, 298.15 K [kg/m3]	mass density, 303.15 K [kg/m3]	mass density, 313.15 K [kg/m3]	viscosity, 283.15 K [mPa·s]	viscosity, 293.15 K [mPa·s]	viscosity, 298.15 K [mPa·s]	viscosity, 303.15 K [mPa·s]	viscosity, 313.15 K [mPa·s]
x2 = 0	836.6 ± 1.2	829.9 ± 1.2	826.5 ± 1.2	823 ± 1.2	816.2 ± 1.3	22.06 ± 0.45	14.5 ± 0.3	11.47 ± 0.24	9.61 ± 0.2	6.9 ± 0.14
x2 = 0.09979	835.2 ± 1.2	828.4 ± 1.2	825 ± 1.2	821.5 ± 1.2	814.6 ± 1.3	18.94 ± 0.39	12.7 ± 0.26	10.22 ± 0.21	8.604 ± 0.18	6.221 ± 0.13
x2 = 0.2	833.7 ± 1.2	826.9 ± 1.2	823.5 ± 1.2	820 ± 1.2	813 ± 1.3	16.12 ± 0.33	10.94 ± 0.23	8.957 ± 0.18	7.538 ± 0.15	5.513 ± 0.11
x2 = 0.3002	831.9 ± 1.2	825.1 ± 1.2	821.6 ± 1.2	818.1 ± 1.2	811.1 ± 1.3	13.35 ± 0.27	9.255 ± 0.19	7.687 ± 0.16	6.462 ± 0.13	4.812 ± 0.1
x2 = 0.3999	829.5 ± 1.2	822.6 ± 1.2	819.1 ± 1.2	815.5 ± 1.3	808.8 ± 1.3	10.96 ± 0.23	7.668 ± 0.16	6.509 ± 0.13	5.468 ± 0.11	4.146 ± 0.086
x2 = 0.5	827.7 ± 1.2	820.6 ± 1.2	817 ± 1.2	813.5 ± 1.3	806.4 ± 1.3	8.705 ± 0.18	6.278 ± 0.13	5.387 ± 0.11	4.547 ± 0.094	3.51 ± 0.073
x2 = 0.6003	824 ± 1.2	816.8 ± 1.2	813.2 ± 1.3	809.5 ± 1.3	802.1 ± 1.3	6.674 ± 0.14	5.013 ± 0.1	4.346 ± 0.09	3.726 ± 0.077	2.92 ± 0.06
x2 = 0.6999	820.1 ± 1.2	812.8 ± 1.3	808.8 ± 1.3	805.4 ± 1.3	797.9 ± 1.3	4.92 ± 0.1	3.832 ± 0.079	3.374 ± 0.07	2.947 ± 0.061	2.352 ± 0.049
x2 = 0.7997	814.6 ± 1.3	807 ± 1.3	803.1 ± 1.3	799.3 ± 1.3	791.5 ± 1.4	3.54 ± 0.073	2.73 ± 0.057	2.459 ± 0.051	2.195 ± 0.045	1.813 ± 0.038
x2 = 0.9	807.9 ± 1.3	800 ± 1.3	795.9 ± 1.3	791.9 ± 1.4	783.8 ± 1.4	2.319 ± 0.048	1.87 ± 0.039	1.692 ± 0.035	1.534 ± 0.032	1.311 ± 0.027

CCCCCCCO [heptan-1-ol] + CCO
Settings	mass density, 283.15 K [kg/m3]	mass density, 293.15 K [kg/m3]	mass density, 298.15 K [kg/m3]	mass density, 303.15 K [kg/m3]	mass density, 313.15 K [kg/m3]	viscosity, 283.15 K [mPa·s]	viscosity, 293.15 K [mPa·s]	viscosity, 298.15 K [mPa·s]	viscosity, 303.15 K [mPa·s]	viscosity, 313.15 K [mPa·s]
x2 = 0	829.6 ± 1.3	822.6 ± 1.3	819.1 ± 1.3	815.6 ± 1.3	808.4 ± 1.4	10.15 ± 0.21	7.026 ± 0.15	5.947 ± 0.12	5.041 ± 0.11	3.802 ± 0.08
x2 = 0.1001	828.1 ± 1.3	821.1 ± 1.3	817.6 ± 1.3	814 ± 1.3	806.8 ± 1.4	8.86 ± 0.18	6.256 ± 0.13	5.311 ± 0.11	4.514 ± 0.095	3.446 ± 0.072
x2 = 0.2008	826.5 ± 1.3	819.5 ± 1.3	815.9 ± 1.3	812.3 ± 1.3	805.1 ± 1.3	7.718 ± 0.16	5.46 ± 0.11	4.679 ± 0.098	3.999 ± 0.084	3.092 ± 0.065
x2 = 0.3009	824.8 ± 1.2	817.7 ± 1.3	814.1 ± 1.3	810.4 ± 1.3	803.1 ± 1.3	6.653 ± 0.14	4.681 ± 0.098	4.097 ± 0.085	3.523 ± 0.074	2.751 ± 0.057
x2 = 0.4002	822.8 ± 1.2	815.5 ± 1.3	811.9 ± 1.3	808.2 ± 1.3	800.8 ± 1.3	5.636 ± 0.12	4.015 ± 0.084	3.565 ± 0.074	3.076 ± 0.064	2.438 ± 0.051
x2 = 0.5001	819.9 ± 1.3	812.5 ± 1.3	808.8 ± 1.3	805.1 ± 1.3	797.5 ± 1.4	4.683 ± 0.097	3.42 ± 0.071	3.037 ± 0.063	2.653 ± 0.055	2.125 ± 0.044
x2 = 0.6002	817.6 ± 1.3	810.2 ± 1.3	806.4 ± 1.3	802.6 ± 1.3	794.9 ± 1.4	3.765 ± 0.078	2.869 ± 0.06	2.541 ± 0.053	2.237 ± 0.047	1.818 ± 0.038
x2 = 0.6998	813.8 ± 1.3	806.2 ± 1.3	802.3 ± 1.3	798.4 ± 1.3	790.6 ± 1.4	3.02 ± 0.063	2.378 ± 0.049	2.09 ± 0.043	1.859 ± 0.039	1.536 ± 0.032
x2 = 0.8	809.9 ± 1.3	802.1 ± 1.3	798.1 ± 1.3	794.1 ± 1.4	786.1 ± 1.4	2.4 ± 0.05	1.943 ± 0.04	1.702 ± 0.035	1.523 ± 0.032	1.28 ± 0.027
x2 = 0.8998	804.3 ± 1.3	796.2 ± 1.3	792.1 ± 1.4	788 ± 1.4	779.7 ± 1.4	1.851 ± 0.038	1.535 ± 0.032	1.375 ± 0.029	1.222 ± 0.025	1.04 ± 0.022

CCCCCCCCCO [nonan-1-ol] + CCO
Settings	mass density, 283.15 K [kg/m3]	mass density, 293.15 K [kg/m3]	mass density, 298.15 K [kg/m3]	mass density, 303.15 K [kg/m3]	mass density, 313.15 K [kg/m3]	viscosity, 283.15 K [mPa·s]	viscosity, 293.15 K [mPa·s]	viscosity, 298.15 K [mPa·s]	viscosity, 303.15 K [mPa·s]	viscosity, 313.15 K [mPa·s]
x2 = 0	835 ± 1.3	828.1 ± 1.3	824.7 ± 1.3	821.3 ± 1.3	814.3 ± 1.4	17.44 ± 0.36	11.63 ± 0.24	9.519 ± 0.2	7.806 ± 0.16	5.668 ± 0.12
x2 = 0.0999	834.1 ± 1.2	827.2 ± 1.3	823.8 ± 1.3	820.3 ± 1.3	813.3 ± 1.3	14.81 ± 0.31	10.17 ± 0.21	8.427 ± 0.18	6.931 ± 0.14	5.108 ± 0.11
x2 = 0.2	832 ± 1.2	825.1 ± 1.3	821.6 ± 1.3	818.1 ± 1.3	811 ± 1.3	12.63 ± 0.26	8.712 ± 0.18	7.371 ± 0.15	6.145 ± 0.13	4.534 ± 0.095
x2 = 0.3002	830 ± 1.2	823.2 ± 1.3	819.7 ± 1.3	816.1 ± 1.3	809 ± 1.3	10.68 ± 0.22	7.431 ± 0.15	6.388 ± 0.13	5.34 ± 0.11	3.966 ± 0.083
x2 = 0.4001	827.9 ± 1.2	820.9 ± 1.3	817.3 ± 1.3	813.8 ± 1.3	806.5 ± 1.3	8.855 ± 0.18	6.275 ± 0.13	5.421 ± 0.11	4.577 ± 0.095	3.443 ± 0.072
x2 = 0.4999	825.3 ± 1.2	818.2 ± 1.3	814.5 ± 1.3	810.9 ± 1.3	803.6 ± 1.3	7.184 ± 0.15	5.234 ± 0.11	4.529 ± 0.094	3.845 ± 0.08	2.946 ± 0.061
x2 = 0.6001	822.9 ± 1.2	815.1 ± 1.3	811.4 ± 1.3	807.7 ± 1.3	800.8 ± 1.3	5.578 ± 0.12	4.243 ± 0.088	3.712 ± 0.077	3.169 ± 0.066	2.485 ± 0.052
x2 = 0.6997	818.3 ± 1.2	810.8 ± 1.3	807 ± 1.3	803.3 ± 1.3	795.6 ± 1.4	4.208 ± 0.087	3.319 ± 0.069	2.936 ± 0.061	2.536 ± 0.053	2.042 ± 0.042
x2 = 0.7975	815 ± 1.3	807.1 ± 1.3	803.3 ± 1.3	799.4 ± 1.3	791.1 ± 1.4	3.169 ± 0.066	2.478 ± 0.051	2.281 ± 0.047	1.961 ± 0.041	1.624 ± 0.034
x2 = 0.8998	809.5 ± 1.3	799.4 ± 1.3	795.3 ± 1.3	791.3 ± 1.4	783 ± 1.4	2.22 ± 0.046	1.696 ± 0.035	1.658 ± 0.034	1.415 ± 0.029	1.214 ± 0.025
